In patent US20180201592A1, “2-AMINO-1,3,4-THIADIAZINE AND 2-AMINO-1,3,4-OXADIAZINE BASED ANTIFUNGAL AGENTS” (F2G Limited, priority 2015, published 2018):
Converted amounts (≈) assume the structure as drawn. Where two headings read alike, the source gives them in different places.

Tests used:
Aspergillus niger = experiment: Minimum inhibitory concentration, YAG medium; type: cell-based; conditions: banded MIC grade; for MIC: Aspergillus niger, YAG media
Method in brief: (§1)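 MIC values (mg/L) were derived from well optical density at 485 nm. Plates with Aspergillus spores and doubling aqueous dilutions of compound (5 mg/mL DMSO stock) had been incubated at 35° C for 24 hrs.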

Aspergillus flavus = experiment: Minimum inhibitory concentration, YAG medium; type: cell-based; conditions: banded MIC grade; for MIC: Aspergillus flavus, YAG media
Method in brief: as §1

Aspergillus terreus = experiment: Minimum inhibitory concentration, YAG medium; type: cell-based; conditions: banded MIC grade; for MIC: Aspergillus terreus, YAG media
Method in brief: as §1

A. fumigatus 210 = experiment: Minimum inhibitory concentration, YAG medium; type: cell-based, Aspergillus fumigatus; conditions: banded MIC grade; for MIC: Aspergillus fumigatus, 210, YAG media
Method in brief: (§2)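 MICs (mg/L) reflect >70% inhibition of OD485 growth versus untreated control after 24 hrs at 35° C in YAG medium, spore inoculum 1-2×10^4 cfu/mL, drug range 50-0.05 mg/L.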

C. tropicalis = experiment: Minimum inhibitory concentration, RPMI medium; type: cell-based; conditions: banded MIC grade; for MIC: Candida tropicalis, RPMI media
Method in brief: (§3)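 Thawed 5 mg/mL DMSO stocks are vortexed, diluted into sterile water and serially halved in water. The MIC test is then run in RPMI 1640 at 35° C for 24-48 hrs. Wells are read at OD 485 nm.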

C. parapsilosis = experiment: Minimum inhibitory concentration, RPMI medium; type: cell-based; conditions: banded MIC grade; for MIC: Lodderomyces parapsilosis, RPMI media
Method in brief: as §3

C. albicans = experiment: Minimum inhibitory concentration, RPMI medium; type: cell-based; conditions: banded MIC grade; for MIC: Candida albicans, RPMI media
Method in brief: as §3

Aspergillus fumigatus = experiment: Minimum inhibitory concentration, YAG medium; type: cell-based; conditions: banded MIC grade; for MIC: Aspergillus fumigatus, YAG media
Method in brief: as §2

A. terreus 49 = experiment: Minimum inhibitory concentration, YAG medium; type: cell-based, Aspergillus terreus; conditions: banded MIC grade; for MIC: Aspergillus terreus, 49, YAG media
Method in brief: as §1

[1] = read-out: MIC grade C. PARAPSILOSIS
[2] = read-out: MIC grade, C. PARAPSILOSIS, RPMI media
[3] = read-out: MIC grade C. ALBICANS
[4] = read-out: MIC grade, C. ALBICANS, RPMI media

SMILES | MIC grade, A. NIGER, YAG media (Aspergillus niger) | MIC grade, A. FLAVUS, YAG media (Aspergillus flavus) | MIC grade, A. TERREUS, YAG media (Aspergillus terreus) | MIC grade, A. FUMIGATUS 210, YAG media (A. fumigatus 210) | MIC grade, C. TROPICALIS, RPMI media (C. tropicalis) | MIC grade, C. PARAPSILOSIS, RPMI media (C. parapsilosis) | MIC grade, C. ALBICANS, RPMI media (C. albicans) | MIC grade, A. FUMIGATUS, YAG media (Aspergillus fumigatus) | MIC grade, A. TERREUS 49, YAG media (A. terreus 49) | MIC (Aspergillus niger) [µg/mL] | MIC (Aspergillus flavus) [µg/mL] | MIC (Aspergillus terreus) [µg/mL] | MIC (A. fumigatus 210) [µg/mL] | MIC (C. tropicalis) [µg/mL] | MIC (C. parapsilosis; [1]) [µg/mL] | MIC (C. parapsilosis; [2]) [µg/mL] | MIC (C. albicans; [3]) [µg/mL] | MIC (C. albicans; [4]) [µg/mL] | MIC (Aspergillus fumigatus) [µg/mL] | MIC (A. terreus 49) [µg/mL]
COc1ccc(CCCOCCC2=NN=C(N)SC2)cc1 | 2 (2: 1-5 mg/L) | 2 (2: 1-5 mg/L) | 2 (2: 1-5 mg/L) | 2 (2: 1-5 mg/L) | 2 (2: 5-20 mg/L) | 3 (3: 1-5 mg/L) | 2 (2: 5-20 mg/L) | 2 (2: 1-5 mg/L) | 2 (2: 1-5 mg/L) |  |  |  |  |  |  |  |  |  |  | 
NC1=NN=C(CCOCCCc2ccccc2)CS1 | 4 (4: <0.2 mg/L) | 4 (4: <0.2 mg/L) | 4 (4: <0.2 mg/L) | 4 (4: <0.2 mg/L) | 3 (3: 1-5 mg/L) | 4 (4: <1 mg/L) | 4 (4: <1 mg/L) | 4 (4: <0.2 mg/L) | 4 (4: <0.2 mg/L) |  |  |  |  |  |  |  |  |  |  | 
COCCCCOCCC1=NN=C(N)SC1 | 3 (3: 0.2-1 mg/L) | 3 (3: 0.2-1 mg/L) | 3 (3: 0.2-1 mg/L) | 3 (3: 0.2-1 mg/L) | 2 (2: 5-20 mg/L) | 3 (3: 1-5 mg/L) | 3 (3: 1-5 mg/L) | 3 (3: 0.2-1 mg/L) | 3 (3: 0.2-1 mg/L) |  |  |  |  |  |  |  |  |  |  | 
CCCCCOc1ccc(CCC2=NN=C(N)SC2)cc1 | 3 (3: 0.2-1 mg/L) | 3 (3: 0.2-1 mg/L) | 2 (2: 1-5 mg/L) | 1 (1: ≥5 mg/L) | 3 (3: 1-5 mg/L) | 3 (3: 1-5 mg/L) | 1 (1: ≥20 mg/L) | 1 (1: ≥5 mg/L) | 3 (3: 0.2-1 mg/L) |  |  |  |  |  |  |  |  |  |  | 
CCCCc1ccc(COCCC2=NN=C(N)SC2)cc1 | 3 (3: 0.2-1 mg/L) | 3 (3: 0.2-1 mg/L) | 3 (3: 0.2-1 mg/L) | 1 (1: ≥5 mg/L) | 2 (2: 5-20 mg/L) | 2 (2: 5-20 mg/L) | 2 (2: 5-20 mg/L) | 1 (1: ≥5 mg/L) | 2 (2: 1-5 mg/L) |  |  |  |  |  |  |  |  |  |  | 
COCCC1=NN=C(N)SC1 | 3 (3: 0.2-1 mg/L) | 3 (3: 0.2-1 mg/L) | 3 (3: 0.2-1 mg/L) | 2 (2: 1-5 mg/L) | 1 (1: ≥20 mg/L) | 2 (2: 5-20 mg/L) | 1 (1: ≥20 mg/L) | 3 (3: 0.2-1 mg/L) | 3 (3: 0.2-1 mg/L) |  |  |  |  |  |  |  |  |  |  | 
NC1=NN=C(c2cccc(Cl)c2)CS1 | 1 (1: ≥5 mg/L) | 1 (1: ≥5 mg/L) | 1 (1: ≥5 mg/L) | 1 (1: ≥5 mg/L) | 1 (1: ≥20 mg/L) | 1 (1: ≥20 mg/L) | 1 (1: ≥20 mg/L) | 1 (1: ≥5 mg/L) | 1 (1: ≥5 mg/L) |  |  |  |  |  |  |  |  |  |  | 
NC1=NN=C(CCCCOCc2ccccc2)CS1 | 4 (4: <0.2 mg/L) | 4 (4: <0.2 mg/L) | 4 (4: <0.2 mg/L) | 4 (4: <0.2 mg/L) | 4 (4: <1 mg/L) | 4 (4: <1 mg/L) | 4 (4: <1 mg/L) | 4 (4: <0.2 mg/L) | 4 (4: <0.2 mg/L) |  |  |  |  |  |  |  |  |  |  | 
NC1=NN=C(c2ccc(Cl)cc2)CS1 | 2 (2: 1-5 mg/L) | 3 (3: 0.2-1 mg/L) | 3 (3: 0.2-1 mg/L) | 2 (2: 1-5 mg/L) | 1 (1: ≥20 mg/L) | 1 (1: ≥20 mg/L) | 1 (1: ≥20 mg/L) | 3 (3: 0.2-1 mg/L) | 3 (3: 0.2-1 mg/L) |  |  |  |  |  |  |  |  |  |  | 
CCc1cccc(OCCCCCC2=NN=C(N)SC2)c1 | 4 (4: <0.2 mg/L) | 4 (4: <0.2 mg/L) | 4 (4: <0.2 mg/L) | 4 (4: <0.2 mg/L) | 4 (4: <1 mg/L) | 4 (4: <1 mg/L) | 4 (4: <1 mg/L) | 4 (4: <0.2 mg/L) | 4 (4: <0.2 mg/L) |  |  |  |  |  |  |  |  |  |  | 
CCCCc1ccc(OCCCCCC2=NN=C(N)SC2)cc1 | 3 (3: 0.2-1 mg/L) | 2 (2: 1-5 mg/L) | 2 (2: 1-5 mg/L) | 2 (2: 1-5 mg/L) | 2 (2: 5-20 mg/L) | 3 (3: 1-5 mg/L) | 2 (2: 5-20 mg/L) | 1 (1: ≥5 mg/L) | 2 (2: 1-5 mg/L) |  |  |  |  |  |  |  |  |  |  | 
CCc1ccc(OCCCCCC2=NN=C(N)SC2)cc1 | 4 (4: <0.2 mg/L) | 4 (4: <0.2 mg/L) | 4 (4: <0.2 mg/L) | 3 (3: 0.2-1 mg/L) | 4 (4: <1 mg/L) | 4 (4: <1 mg/L) | 4 (4: <1 mg/L) | 3 (3: 0.2-1 mg/L) | 4 (4: <0.2 mg/L) |  |  |  |  |  |  |  |  |  |  | 
Cc1cccc(C2=NN=C(N)SC2)c1 | 2 (2: 1-5 mg/L) | 1 (1: ≥5 mg/L) | 2 (2: 1-5 mg/L) | 1 (1: ≥5 mg/L) | 1 (1: ≥20 mg/L) | 1 (1: ≥20 mg/L) | 1 (1: ≥20 mg/L) | 1 (1: ≥5 mg/L) | 2 (2: 1-5 mg/L) |  |  |  |  |  |  |  |  |  |  | 
Cc1ccc(C2=NN=C(N)SC2)cc1 | 3 (3: 0.2-1 mg/L) | 3 (3: 0.2-1 mg/L) | 2 (2: 1-5 mg/L) | 3 (3: 0.2-1 mg/L) | 1 (1: ≥20 mg/L) | 2 (2: 5-20 mg/L) | 1 (1: ≥20 mg/L) | 3 (3: 0.2-1 mg/L) | 3 (3: 0.2-1 mg/L) |  |  |  |  |  |  |  |  |  |  | 
CCCCOC(=O)c1ccc(C2=NN=C(N)SC2)cc1 | 3 (3: 0.2-1 mg/L) | 3 (3: 0.2-1 mg/L) | 2 (2: 1-5 mg/L) | 3 (3: 0.2-1 mg/L) | 1 (1: ≥20 mg/L) | 1 (1: ≥20 mg/L) | 1 (1: ≥20 mg/L) | 3 (3: 0.2-1 mg/L) | 2 (2: 1-5 mg/L) |  |  |  |  |  |  |  |  |  |  | 
CCOC(=O)CC1=NN=C(N)SC1 | 3 (3: 0.2-1 mg/L) | 2 (2: 1-5 mg/L) | 3 (3: 0.2-1 mg/L) | 2 (2: 1-5 mg/L) | 2 (2: 5-20 mg/L) | 3 (3: 1-5 mg/L) | 3 (3: 1-5 mg/L) | 2 (2: 1-5 mg/L) | 3 (3: 0.2-1 mg/L) |  |  |  |  |  |  |  |  |  |  | 
CN1N=C(N)SC=C1c1ccc(C#N)cc1 [4-(2-amino-4-methyl-1,3,4-thiadiazin-5-yl)benzonitrile] |  |  |  |  |  |  |  |  |  | < 0.2 | < 0.2 | < 0.2 | < 0.2 | 5 to 20 (≈ 21.7 to 86.8 µM) | 1 to 5 (≈ 4.34 to 21.7 µM) | 1 to 5 (≈ 4.34 to 21.7 µM) | < 1 | 1 to 5 (≈ 4.34 to 21.7 µM) | 0.2 to 1 (≈ 0.868 to 4.34 µM) | < 0.2
COCCCCCN1N=C(N)SC=C1C [4-(5-methoxypentyl)-5-methyl-1,3,4-thiadiazin-2-amine] |  |  |  |  |  |  |  |  |  | ≥ 5 | 1 to 5 (≈ 4.36 to 21.8 µM) | 1 to 5 (≈ 4.36 to 21.8 µM) | 1 to 5 (≈ 4.36 to 21.8 µM) | ≥ 20 | ≥ 20 | 5 to 20 (≈ 21.8 to 87.2 µM) | ≥ 20 | ≥ 20 | ≥ 5 | 1 to 5 (≈ 4.36 to 21.8 µM)
